Experimental data: ChEMBL document CHEMBL1158080, “Dehydrozingerone, chalcone, and isoeugenol analogues as in vitro anticancer agents” (J Nat Prod, 2006)
In brackets after ≈: the same amount, converted by molar mass.

Key:
Assay type in all cases: functional, cell-based
[1] = tested on: KB; assay: Cytotoxicity against multidrug-resistant human KB-VCR cells after 2 days by sulforhodamine B assay; settings: 48 h
[2] = tested on: A549; assay: Cytotoxicity against human A549 cells after 2 days by sulforhodamine B assay; settings: A549, 48 h
[3] = tested on: KB; assay: Cytotoxicity against human KB cells after 2 days by sulforhodamine B assay; settings: 48 h

What does the source list for `COc1ccc(/C=C/C(C)=O)cc1OC`?
IC50 [1]: 7.8 µg/mL (≈ 37.8 µM); IC50 [2]: 8 µg/mL (≈ 38.8 µM); IC50 [3]: 8.6 µg/mL (≈ 41.7 µM)

Which IC50 [1] does the source give for `COc1ccc(/C=C/C(C)=O)cc1O` here?
The IC50 was 8.2 µg/mL (≈ 42.7 µM).

What about the IC50 [2] of the same compound?
The IC50 was > 10 µg/mL.

And the IC50 [3]?
Its IC50 is 10 µg/mL (≈ 52 µM).

With `CC(=O)/C=C/c1cccc(F)c1O` as the compound, how does the IC50 [1] read?
Its IC50 is 3 µg/mL (≈ 16.7 µM).

And the IC50 [2]?
Its IC50 is 3 µg/mL (≈ 16.7 µM).

And the IC50 [3]?
Its IC50 is 2.1 µg/mL (≈ 11.7 µM).

How did the IC50 [1] turn out when `COc1ccc(/C=C/C(=O)c2ccccc2)cc1O` was run?
The IC50 was 1 µg/mL (≈ 3.93 µM).

And the IC50 [2]?
Its IC50 is 3.5 µg/mL (≈ 13.8 µM).

What about the IC50 [3] of the same compound?
The IC50 was 1 µg/mL (≈ 3.93 µM).

What does the source list for `CCOc1cccc(/C=C/C(C)=O)c1O`?
IC50 [1]: 1.9 µg/mL (≈ 9.21 µM); IC50 [2]: 2.3 µg/mL (≈ 11.2 µM); IC50 [3]: 2 µg/mL (≈ 9.7 µM)

Which results are given for `COc1ccc(/C=C/C(C)=O)c(O)c1`?
IC50 [1]: 4 µg/mL (≈ 20.8 µM); IC50 [2]: 3.5 µg/mL (≈ 18.2 µM); IC50 [3]: 3.8 µg/mL (≈ 19.8 µM)

What does the source list for `COc1cccc(/C=C/C(=O)c2ccccc2)c1O`?
IC50 [1]: 1.3 µg/mL (≈ 5.11 µM); IC50 [2]: 0.6 µg/mL (≈ 2.36 µM); IC50 [3]: 2.4 µg/mL (≈ 9.44 µM)

How did the IC50 [1] turn out when `COc1ccc(/C=C/C(C)=O)cc1F` was run?
The IC50 was 5 µg/mL (≈ 25.7 µM).

And the IC50 [2]?
Its IC50 is 5.5 µg/mL (≈ 28.3 µM).

What about the IC50 [3] of the same compound?
The IC50 was 4.3 µg/mL (≈ 22.1 µM).

How did the IC50 [1] turn out when `C=CCOc1ccc(/C=C/C)cc1OC` was run?
Its IC50 is > 10 µg/mL.

What about the IC50 [3] of the same compound?
The IC50 was > 10 µg/mL.

How did the IC50 [1] turn out when `C/C=C/c1ccc(OCC=C(C)C)c(OC)c1` was run?
Its IC50 is > 10 µg/mL.

What about the IC50 [3] of the same compound?
The IC50 was > 10 µg/mL.

Which results are given for `C=CCOc1ccc(/C=C/C(C)=O)cc1OC`?
IC50 [1]: 5 µg/mL (≈ 21.5 µM); IC50 [2]: 5.8 µg/mL (≈ 25 µM); IC50 [3]: 6.8 µg/mL (≈ 29.3 µM)

What does the source list for `C/C=C/c1ccc(OCCC(C)C)c(OC)c1`?
IC50 [1]: > 10 µg/mL; IC50 [3]: > 10 µg/mL

What does the source list for `C/C=C/c1ccc(OCCC)c(OC)c1`?
IC50 [1]: > 10 µg/mL; IC50 [3]: > 10 µg/mL

For `C/C=C/COc1ccc(/C=C/C)cc1OC`, which IC50 [1] is on record?
The IC50 was > 10 µg/mL.

What about the IC50 [3] of the same compound?
Its IC50 is > 10 µg/mL.

Which IC50 [1] does the source give for `COc1cc(/C=C/C(C)=O)ccc1OCC=C(C)C` here?
The IC50 was 3.5 µg/mL (≈ 13.4 µM).

And the IC50 [2]?
Its IC50 is 3.8 µg/mL (≈ 14.6 µM).

And the IC50 [3]?
The IC50 was 5.7 µg/mL (≈ 21.9 µM).

How did the IC50 [1] turn out when `C/C=C/COc1ccc(/C=C/C(C)=O)cc1OC` was run?
Its IC50 is 3.4 µg/mL (≈ 13.8 µM).

And the IC50 [2]?
The IC50 was 6.8 µg/mL (≈ 27.6 µM).

And the IC50 [3]?
Its IC50 is 4.8 µg/mL (≈ 19.5 µM).

Which IC50 [1] does the source give for `COc1cc(/C=C/C(C)=O)ccc1OC/C=C(\C)CCC=C(C)C` here?
The IC50 was 3.3 µg/mL (≈ 10 µM).

What about the IC50 [2] of the same compound?
The IC50 was 3.4 µg/mL (≈ 10.4 µM).

And the IC50 [3]?
Its IC50 is 2.2 µg/mL (≈ 6.7 µM).

Which results are given for `CCOc1ccc(/C=C/C(C)=O)cc1OC`?
IC50 [1]: 8 µg/mL (≈ 36.3 µM); IC50 [2]: > 10 µg/mL; IC50 [3]: 5.5 µg/mL (≈ 25 µM)

Which IC50 [1] does the source give for `CCOc1cc(/C=C/C(C)=O)ccc1O` here?
The IC50 was 7.8 µg/mL (≈ 37.8 µM).

And the IC50 [2]?
The IC50 was 8.5 µg/mL (≈ 41.2 µM).

What about the IC50 [3] of the same compound?
Its IC50 is 7.7 µg/mL (≈ 37.3 µM).

What does the source list for `COc1cc(/C=C/C(=O)c2ccccc2)ccc1O`?
IC50 [1]: 1.9 µg/mL (≈ 7.47 µM); IC50 [2]: 2.3 µg/mL (≈ 9.04 µM); IC50 [3]: 3.5 µg/mL (≈ 13.8 µM)

Which results are given for `CCCOc1ccc(/C=C/C(C)=O)cc1OC`?
IC50 [1]: 4.2 µg/mL (≈ 17.9 µM); IC50 [2]: 5.8 µg/mL (≈ 24.8 µM); IC50 [3]: 6.5 µg/mL (≈ 27.7 µM)

`COc1cc(/C=C/C(C)=O)ccc1OCCC(C)C` was tested. Which IC50 [1] did it give?
Its IC50 is 3.2 µg/mL (≈ 12.2 µM).

What about the IC50 [2] of the same compound?
Its IC50 is 7.2 µg/mL (≈ 27.4 µM).

And the IC50 [3]?
Its IC50 is 3.6 µg/mL (≈ 13.7 µM).

Which IC50 [1] does the source give for `COc1ccc(/C=C/C(=O)c2ccccc2)c(O)c1` here?
Its IC50 is 2 µg/mL (≈ 7.87 µM).

And the IC50 [2]?
Its IC50 is 3.8 µg/mL (≈ 14.9 µM).

What about the IC50 [3] of the same compound?
The IC50 was 2 µg/mL (≈ 7.87 µM).

For `COc1cc(/C=C/C(C)=O)ccc1OC/C=C(\C)CC/C=C(\C)CCC=C(C)C`, which IC50 [1] is on record?
Its IC50 is 7.4 µg/mL (≈ 18.7 µM).

What about the IC50 [2] of the same compound?
Its IC50 is 7.4 µg/mL (≈ 18.7 µM).

What about the IC50 [3] of the same compound?
The IC50 was 6.5 µg/mL (≈ 16.4 µM).

`C/C=C/c1ccc(OC/C=C(\C)CC/C=C(\C)CCC=C(C)C)c(OC)c1` was tested. Which IC50 [1] did it give?
The IC50 was > 10 µg/mL.

What about the IC50 [3] of the same compound?
The IC50 was > 10 µg/mL.

For `COc1cccc(/C=C/C(C)=O)c1O`, which IC50 [1] is on record?
The IC50 was 2 µg/mL (≈ 10.4 µM).

What about the IC50 [2] of the same compound?
The IC50 was 2.5 µg/mL (≈ 13 µM).

What about the IC50 [3] of the same compound?
The IC50 was 3.8 µg/mL (≈ 19.8 µM).

Which results are given for `COc1cc(/C=C/C(=O)CC(=O)/C=C/c2ccc(O)c(OC)c2)ccc1O` [CURCUMIN]?
IC50 [1]: 3.1 µg/mL (≈ 8.42 µM); IC50 [2]: 5.2 µg/mL (≈ 14.1 µM); IC50 [3]: 5.5 µg/mL (≈ 14.9 µM)

Which results are given for `COc1cc(/C=C/C(C)=O)ccc1O` [DEHYDROZINGERONE]?
IC50 [1]: > 10 µg/mL; IC50 [2]: > 10 µg/mL; IC50 [3]: > 10 µg/mL

What does the source list for `COc1cccc2c1C(=O)c1c(O)c3c(c(O)c1C2=O)C[C@@](O)(C(=O)CO)C[C@@H]3O[C@H]1C[C@H](N)[C@H](O)[C@H](C)O1` [DOXORUBICIN]?
IC50 [1]: 2.7 µg/mL (≈ 4.97 µM); IC50 [2]: 0.1 µg/mL (≈ 0.184 µM); IC50 [3]: 0.1 µg/mL (≈ 0.184 µM)

What does the source list for `C/C=C/c1ccc(OC)c(OC)c1` [METHYLISOEUGENOL]?
IC50 [1]: > 10 µg/mL; IC50 [3]: > 10 µg/mL
